How the values were obtained:
Format in all cases: functional, cell-based
Set-up in all cases: recommended concentration 100 nM
[1] = molecular target: Centromere-associated protein E (Homo sapiens) (UniProt Q02224); test: Affinity Phenotypic Cellular interaction: (Cell-growth inhibition assays (growth inhibitory effect colon cancer cell line CHP-212)) EUB0000734a CENPE; conditions: Affinity Phenotypic Cellular Source Knowledge https://pubmed.ncbi.nlm.nih.gov/20167803/
[2] = molecular target: Centromere-associated protein E (Homo sapiens) (UniProt Q02224); test: Affinity Phenotypic Cellular interaction: (Cell-growth inhibition assays (growth inhibitory effect thyroid cancer cell line SW579)) EUB0000734a CENPE; conditions: Affinity Phenotypic Cellular Source Knowledge https://pubmed.ncbi.nlm.nih.gov/20167803/
[3] = molecular target: Centromere-associated protein E (Homo sapiens) (UniProt Q02224); test: Affinity Phenotypic Cellular interaction: (Cell-growth inhibition assays (growth inhibitory effect colon cancer cell line HEC-1-A)) EUB0000734a CENPE; conditions: Affinity Phenotypic Cellular Source Knowledge https://pubmed.ncbi.nlm.nih.gov/20167803/
[4] = molecular target: Centromere-associated protein E (Homo sapiens) (UniProt Q02224); test: Affinity Phenotypic Cellular interaction: (Cell-growth inhibition assays (growth inhibitory effect colon cancer cell line Raji)) EUB0000734a CENPE; conditions: Affinity Phenotypic Cellular Source Knowledge https://pubmed.ncbi.nlm.nih.gov/20167803/
[5] = molecular target: Centromere-associated protein E (Homo sapiens) (UniProt Q02224); test: Affinity Phenotypic Cellular interaction: (Cell-growth inhibition assays (growth inhibitory effect colon cancer cell line EFM-19)) EUB0000734a CENPE; conditions: Affinity Phenotypic Cellular Source Knowledge https://pubmed.ncbi.nlm.nih.gov/20167803/
[6] = molecular target: Centromere-associated protein E (Homo sapiens) (UniProt Q02224); test: Affinity Phenotypic Cellular interaction: (Cell-growth inhibition assays (growth inhibitory effect colon cancer cell line RD)) EUB0000734a CENPE; conditions: Affinity Phenotypic Cellular Source Knowledge https://pubmed.ncbi.nlm.nih.gov/20167803/
[7] = molecular target: Centromere-associated protein E (Homo sapiens) (UniProt Q02224); test: Affinity Phenotypic Cellular interaction: (Cell-growth inhibition assays (growth inhibitory effect colon cancer cell line U251)) EUB0000734a CENPE; conditions: U-251, Affinity Phenotypic Cellular Source Knowledge https://pubmed.ncbi.nlm.nih.gov/20167803/
[8] = molecular target: Centromere-associated protein E (Homo sapiens) (UniProt Q02224); test: Affinity Phenotypic Cellular interaction: (Cell-growth inhibition assays (growth inhibitory effect lung cancer cell line MV522)) EUB0000734a CENPE; conditions: MV-522, Affinity Phenotypic Cellular Source Knowledge https://pubmed.ncbi.nlm.nih.gov/20167803/
[9] = molecular target: Centromere-associated protein E (Homo sapiens) (UniProt Q02224); test: Affinity Phenotypic Cellular interaction: (Cell-growth inhibition assays (growth inhibitory effect colon cancer cell line HOP-62)) EUB0000734a CENPE; conditions: Affinity Phenotypic Cellular Source Knowledge https://pubmed.ncbi.nlm.nih.gov/20167803/
[10] = molecular target: Centromere-associated protein E (Homo sapiens) (UniProt Q02224); test: Affinity Phenotypic Cellular interaction: (Cell-growth inhibition assays (growth inhibitory effect colon cancer cell line CRO-AP2)) EUB0000734a CENPE; conditions: Affinity Phenotypic Cellular Source Knowledge https://pubmed.ncbi.nlm.nih.gov/20167803/
[11] = molecular target: Centromere-associated protein E (Homo sapiens) (UniProt Q02224); test: Affinity Phenotypic Cellular interaction: (Cell-growth inhibition assays (growth inhibitory effect colon cancer cell line SNB-75)) EUB0000734a CENPE; conditions: Affinity Phenotypic Cellular Source Knowledge https://pubmed.ncbi.nlm.nih.gov/20167803/
[12] = molecular target: Centromere-associated protein E (Homo sapiens) (UniProt Q02224); test: Affinity Phenotypic Cellular interaction: (Cell-growth inhibition assays (growth inhibitory effect colon cancer cell line SNU-398)) EUB0000734a CENPE; conditions: Affinity Phenotypic Cellular Source Knowledge https://pubmed.ncbi.nlm.nih.gov/20167803/
[13] = molecular target: Centromere-associated protein E (Homo sapiens) (UniProt Q02224); test: Affinity Phenotypic Cellular interaction: (Cell-growth inhibition assays (growth inhibitory effect colon cancer cell line MDA-MB-435)) EUB0000734a CENPE; conditions: Affinity Phenotypic Cellular Source Knowledge https://pubmed.ncbi.nlm.nih.gov/20167803/
[14] = molecular target: Centromere-associated protein E (Homo sapiens) (UniProt Q02224); test: Affinity Phenotypic Cellular interaction: (Cell-growth inhibition assays (growth inhibitory effect colon cancer cell line K-562)) EUB0000734a CENPE; conditions: K562, Affinity Phenotypic Cellular Source Knowledge https://pubmed.ncbi.nlm.nih.gov/20167803/
[15] = molecular target: Centromere-associated protein E (Homo sapiens) (UniProt Q02224); test: Affinity Phenotypic Cellular interaction: (Cell-growth inhibition assays (growth inhibitory effect colon cancer cell line EKVX)) EUB0000734a CENPE; conditions: Affinity Phenotypic Cellular Source Knowledge https://pubmed.ncbi.nlm.nih.gov/20167803/
[16] = molecular target: Centromere-associated protein E (Homo sapiens) (UniProt Q02224); test: Affinity Phenotypic Cellular interaction: (Cell-growth inhibition assays (growth inhibitory effect colon cancer cell line RPMI6666)) EUB0000734a CENPE; conditions: RPMI-6666, Affinity Phenotypic Cellular Source Knowledge https://pubmed.ncbi.nlm.nih.gov/20167803/
[17] = molecular target: Centromere-associated protein E (Homo sapiens) (UniProt Q02224); test: Affinity Phenotypic Cellular interaction: (Cell-growth inhibition assays (growth inhibitory effect colon cancer cell line A549)) EUB0000734a CENPE; conditions: Affinity Phenotypic Cellular Source Knowledge https://pubmed.ncbi.nlm.nih.gov/20167803/
[18] = molecular target: Centromere-associated protein E (Homo sapiens) (UniProt Q02224); test: Affinity Phenotypic Cellular interaction: (Cell-growth inhibition assays (growth inhibitory effect colon cancer cell line HCT-8)) EUB0000734a CENPE; conditions: Affinity Phenotypic Cellular Source Knowledge https://pubmed.ncbi.nlm.nih.gov/20167803/
[19] = molecular target: Centromere-associated protein E (Homo sapiens) (UniProt Q02224); test: Affinity Phenotypic Cellular interaction: (Cell-growth inhibition assays (growth inhibitory effect colon cancer cell line SHP-77)) EUB0000734a CENPE; conditions: SHP77, Affinity Phenotypic Cellular Source Knowledge https://pubmed.ncbi.nlm.nih.gov/20167803/
[20] = molecular target: Centromere-associated protein E (Homo sapiens) (UniProt Q02224); test: Affinity Phenotypic Cellular interaction: (Cell-growth inhibition assays (growth inhibitory effect colon cancer cell line COLO205)) EUB0000734a CENPE; conditions: COLO 205, Affinity Phenotypic Cellular Source Knowledge https://pubmed.ncbi.nlm.nih.gov/20167803/
[21] = molecular target: Centromere-associated protein E (Homo sapiens) (UniProt Q02224); test: Affinity Phenotypic Cellular interaction: (Cell-growth inhibition assays (growth inhibitory effect colon cancer cell line MOLT-16)) EUB0000734a CENPE; conditions: Affinity Phenotypic Cellular Source Knowledge https://pubmed.ncbi.nlm.nih.gov/20167803/
[22] = molecular target: Centromere-associated protein E (Homo sapiens) (UniProt Q02224); test: Affinity Phenotypic Cellular interaction: (Cell-growth inhibition assays (growth inhibitory effect colon cancer cell line SW48)) EUB0000734a CENPE; conditions: Affinity Phenotypic Cellular Source Knowledge https://pubmed.ncbi.nlm.nih.gov/20167803/
[23] = molecular target: Centromere-associated protein E (Homo sapiens) (UniProt Q02224); test: Affinity Phenotypic Cellular interaction: (Cell-growth inhibition assays (growth inhibitory effect colon cancer cell line HT-3)) EUB0000734a CENPE; conditions: Affinity Phenotypic Cellular Source Knowledge https://pubmed.ncbi.nlm.nih.gov/20167803/
[24] = molecular target: Centromere-associated protein E (Homo sapiens) (UniProt Q02224); test: Affinity Phenotypic Cellular interaction: (Cell-growth inhibition assays (growth inhibitory effect colon cancer cell line HeLa)) EUB0000734a CENPE; conditions: Affinity Phenotypic Cellular Source Knowledge https://pubmed.ncbi.nlm.nih.gov/20167803/
[25] = molecular target: Centromere-associated protein E (Homo sapiens) (UniProt Q02224); test: Affinity Phenotypic Cellular interaction: (Cell-growth inhibition assays (growth inhibitory effect colon cancer cell line BT-20)) EUB0000734a CENPE; conditions: Affinity Phenotypic Cellular Source Knowledge https://pubmed.ncbi.nlm.nih.gov/20167803/
[26] = molecular target: Centromere-associated protein E (Homo sapiens) (UniProt Q02224); test: Affinity Phenotypic Cellular interaction: (Cell-growth inhibition assays (growth inhibitory effect sarcoma cancer cell line TE381.T)) EUB0000734a CENPE; conditions: TE 381.T, Affinity Phenotypic Cellular Source Knowledge https://pubmed.ncbi.nlm.nih.gov/20167803/
[27] = molecular target: Centromere-associated protein E (Homo sapiens) (UniProt Q02224); test: Affinity Phenotypic Cellular interaction: (Cell-growth inhibition assays (growth inhibitory effect colon cancer cell line CCF-STTG1)) EUB0000734a CENPE; conditions: Affinity Phenotypic Cellular Source Knowledge https://pubmed.ncbi.nlm.nih.gov/20167803/
[28] = molecular target: Centromere-associated protein E (Homo sapiens) (UniProt Q02224); test: Affinity Phenotypic Cellular interaction: (Cell-growth inhibition assays (growth inhibitory effect colon cancer cell line SNU-475)) EUB0000734a CENPE; conditions: Affinity Phenotypic Cellular Source Knowledge https://pubmed.ncbi.nlm.nih.gov/20167803/
[29] = molecular target: Centromere-associated protein E (Homo sapiens) (UniProt Q02224); test: Affinity Phenotypic Cellular interaction: (Cell-growth inhibition assays (growth inhibitory effect colon cancer cell line SNU-423)) EUB0000734a CENPE; conditions: Affinity Phenotypic Cellular Source Knowledge https://pubmed.ncbi.nlm.nih.gov/20167803/
[30] = molecular target: Centromere-associated protein E (Homo sapiens) (UniProt Q02224); test: Affinity Phenotypic Cellular interaction: (Cell-growth inhibition assays (growth inhibitory effect colon cancer cell line SF-539)) EUB0000734a CENPE; conditions: Affinity Phenotypic Cellular Source Knowledge https://pubmed.ncbi.nlm.nih.gov/20167803/
[31] = molecular target: Centromere-associated protein E (Homo sapiens) (UniProt Q02224); test: Affinity Phenotypic Cellular interaction: (Cell-growth inhibition assays (growth inhibitory effect colon cancer cell line Y79)) EUB0000734a CENPE; conditions: Affinity Phenotypic Cellular Source Knowledge https://pubmed.ncbi.nlm.nih.gov/20167803/
[32] = molecular target: Centromere-associated protein E (Homo sapiens) (UniProt Q02224); test: Affinity Phenotypic Cellular interaction: (Cell-growth inhibition assays (growth inhibitory effect colon cancer cell line BHT-101)) EUB0000734a CENPE; conditions: Affinity Phenotypic Cellular Source Knowledge https://pubmed.ncbi.nlm.nih.gov/20167803/
[33] = molecular target: Centromere-associated protein E (Homo sapiens) (UniProt Q02224); test: Affinity Phenotypic Cellular interaction: (Cell-growth inhibition assays (growth inhibitory effect colon cancer cell line SW1417)) EUB0000734a CENPE; conditions: Affinity Phenotypic Cellular Source Knowledge https://pubmed.ncbi.nlm.nih.gov/20167803/
[34] = molecular target: Centromere-associated protein E (Homo sapiens) (UniProt Q02224); test: Affinity Phenotypic Cellular interaction: (Cell-growth inhibition assays (growth inhibitory effect colon cancer cell line BV-173)) EUB0000734a CENPE; conditions: Affinity Phenotypic Cellular Source Knowledge https://pubmed.ncbi.nlm.nih.gov/20167803/
[35] = molecular target: Centromere-associated protein E (Homo sapiens) (UniProt Q02224); test: Affinity Phenotypic Cellular interaction: (Cell-growth inhibition assays (growth inhibitory effect colon cancer cell line NCI-H292)) EUB0000734a CENPE; conditions: Affinity Phenotypic Cellular Source Knowledge https://pubmed.ncbi.nlm.nih.gov/20167803/
[36] = molecular target: Centromere-associated protein E (Homo sapiens) (UniProt Q02224); test: Affinity Phenotypic Cellular interaction: (Cell-growth inhibition assays (growth inhibitory effect colon cancer cell line LNCaP)) EUB0000734a CENPE; conditions: Affinity Phenotypic Cellular Source Knowledge https://pubmed.ncbi.nlm.nih.gov/20167803/
[37] = molecular target: Centromere-associated protein E (Homo sapiens) (UniProt Q02224); test: Affinity Phenotypic Cellular interaction: (Cell-growth inhibition assays (growth inhibitory effect colon cancer cell line 786-O)) EUB0000734a CENPE; conditions: 786-0, Affinity Phenotypic Cellular Source Knowledge https://pubmed.ncbi.nlm.nih.gov/20167803/

Sequence of Centromere-associated protein E (Homo sapiens) (Q02224 whole entry): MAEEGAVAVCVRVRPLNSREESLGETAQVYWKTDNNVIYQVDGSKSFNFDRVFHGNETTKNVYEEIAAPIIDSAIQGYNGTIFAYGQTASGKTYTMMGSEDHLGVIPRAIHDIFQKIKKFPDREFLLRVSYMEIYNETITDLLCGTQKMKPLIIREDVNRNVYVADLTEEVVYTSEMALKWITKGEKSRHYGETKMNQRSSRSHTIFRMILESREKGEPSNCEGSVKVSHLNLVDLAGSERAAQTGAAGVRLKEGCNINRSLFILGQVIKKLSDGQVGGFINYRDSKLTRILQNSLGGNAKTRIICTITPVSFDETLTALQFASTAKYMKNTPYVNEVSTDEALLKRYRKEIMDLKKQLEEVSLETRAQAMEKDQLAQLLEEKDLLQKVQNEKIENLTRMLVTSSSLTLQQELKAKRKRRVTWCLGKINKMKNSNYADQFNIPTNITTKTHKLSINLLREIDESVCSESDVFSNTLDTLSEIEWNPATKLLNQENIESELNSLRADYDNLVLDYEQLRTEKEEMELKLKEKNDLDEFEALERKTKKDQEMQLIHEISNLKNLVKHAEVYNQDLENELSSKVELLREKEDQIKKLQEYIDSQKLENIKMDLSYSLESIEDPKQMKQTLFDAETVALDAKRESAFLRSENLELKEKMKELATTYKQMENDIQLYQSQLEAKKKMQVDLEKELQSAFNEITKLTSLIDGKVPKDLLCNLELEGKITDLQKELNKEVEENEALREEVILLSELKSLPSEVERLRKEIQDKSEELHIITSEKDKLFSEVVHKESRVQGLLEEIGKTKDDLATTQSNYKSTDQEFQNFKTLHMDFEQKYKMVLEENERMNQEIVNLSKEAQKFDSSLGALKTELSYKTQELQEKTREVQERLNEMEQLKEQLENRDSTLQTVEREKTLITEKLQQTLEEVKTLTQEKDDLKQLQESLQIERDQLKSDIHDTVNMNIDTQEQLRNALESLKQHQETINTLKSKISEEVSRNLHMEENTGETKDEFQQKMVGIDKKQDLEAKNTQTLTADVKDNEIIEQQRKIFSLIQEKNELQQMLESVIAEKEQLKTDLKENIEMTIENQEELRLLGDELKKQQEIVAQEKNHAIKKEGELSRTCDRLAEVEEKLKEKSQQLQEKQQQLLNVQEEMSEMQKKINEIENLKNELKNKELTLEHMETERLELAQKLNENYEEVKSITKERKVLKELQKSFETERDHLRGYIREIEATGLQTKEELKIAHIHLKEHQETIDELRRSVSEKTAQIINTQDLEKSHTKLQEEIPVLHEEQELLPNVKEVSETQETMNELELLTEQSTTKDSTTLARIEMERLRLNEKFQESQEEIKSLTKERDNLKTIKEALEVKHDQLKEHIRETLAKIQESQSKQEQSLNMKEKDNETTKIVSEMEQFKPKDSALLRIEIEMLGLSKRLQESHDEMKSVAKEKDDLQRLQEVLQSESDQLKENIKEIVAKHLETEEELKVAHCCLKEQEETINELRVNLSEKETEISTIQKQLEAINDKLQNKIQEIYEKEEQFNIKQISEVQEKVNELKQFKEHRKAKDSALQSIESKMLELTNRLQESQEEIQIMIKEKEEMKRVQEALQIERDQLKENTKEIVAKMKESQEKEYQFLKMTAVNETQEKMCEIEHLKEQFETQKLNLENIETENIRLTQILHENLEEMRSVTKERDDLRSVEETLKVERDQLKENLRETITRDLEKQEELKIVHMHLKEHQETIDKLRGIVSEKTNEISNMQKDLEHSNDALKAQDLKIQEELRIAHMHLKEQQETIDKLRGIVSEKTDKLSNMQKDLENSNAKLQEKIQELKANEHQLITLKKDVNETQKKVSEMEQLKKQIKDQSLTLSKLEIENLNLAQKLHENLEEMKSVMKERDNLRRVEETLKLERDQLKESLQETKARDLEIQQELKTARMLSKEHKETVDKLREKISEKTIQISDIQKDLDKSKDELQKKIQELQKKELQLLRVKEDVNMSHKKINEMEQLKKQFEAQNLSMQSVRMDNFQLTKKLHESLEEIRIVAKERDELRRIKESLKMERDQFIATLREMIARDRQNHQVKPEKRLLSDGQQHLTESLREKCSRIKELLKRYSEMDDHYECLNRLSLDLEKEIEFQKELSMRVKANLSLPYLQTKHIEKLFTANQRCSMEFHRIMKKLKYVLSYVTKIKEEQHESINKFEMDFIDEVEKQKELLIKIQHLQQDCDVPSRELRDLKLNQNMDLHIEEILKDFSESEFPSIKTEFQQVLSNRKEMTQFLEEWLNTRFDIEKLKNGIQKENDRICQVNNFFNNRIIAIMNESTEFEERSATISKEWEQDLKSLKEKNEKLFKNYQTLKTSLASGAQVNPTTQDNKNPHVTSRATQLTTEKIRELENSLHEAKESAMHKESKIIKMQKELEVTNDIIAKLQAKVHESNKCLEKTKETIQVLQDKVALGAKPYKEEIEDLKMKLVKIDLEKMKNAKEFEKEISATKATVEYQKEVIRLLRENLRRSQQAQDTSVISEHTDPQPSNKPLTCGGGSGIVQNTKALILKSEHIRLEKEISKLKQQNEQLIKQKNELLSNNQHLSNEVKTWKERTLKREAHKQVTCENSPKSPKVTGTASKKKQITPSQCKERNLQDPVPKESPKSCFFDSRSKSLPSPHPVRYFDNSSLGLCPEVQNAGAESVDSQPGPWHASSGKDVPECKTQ

GIC50 [1]: 34 nM | GIC50 [2]: 26 nM | GIC50 [3]: 50 nM | GIC50 [4]: 41 nM | GIC50 [5]: 28 nM | GIC50 [6]: 28 nM | GIC50 [7]: 26 nM | GIC50 [8]: 48 nM | GIC50 [9]: 20 nM | GIC50 [10]: 51 nM | GIC50 [11]: 26 nM | GIC50 [12]: 27 nM | GIC50 [13]: 30 nM | GIC50 [14]: 25 nM | GIC50 [15]: 28 nM | GIC50 [16]: 88 nM | GIC50 [17]: 21 nM | GIC50 [18]: 35 nM | GIC50 [19]: 86 nM | GIC50 [20]: 25 nM | GIC50 [21]: 47 nM | GIC50 [22]: 25 nM | GIC50 [23]: 10 µM | GIC50 [24]: 20 nM | GIC50 [25]: 32 nM | GIC50 [26]: 27 nM | GIC50 [27]: 24 nM | GIC50 [28]: 26 nM | GIC50 [29]: 34 nM | GIC50 [30]: 28 nM | GIC50 [31]: 70 nM | GIC50 [32]: 100 nM | GIC50 [33]: 29 nM | GIC50 [34]: 56 nM | GIC50 [35]: 31 nM | GIC50 [36]: 76 nM | GIC50 [37]: 45 nM
SMILES: CC(C)Oc1ccc(C(=O)N[C@H](CNC(=O)CN(C)C)Cc2ccc(-c3cn4cccc([C@H](C)O)c4n3)cc2)cc1Cl

— ChEMBL document CHEMBL5444388, “Affinity Phenotypic Cellular Literature for EUbOPEN Chemogenomic Library” (2024)
